The values below come from ChEMBL document CHEMBL1201862, “PubChem BioAssay data set” (2004).

Among the test systems are CCRF-CEM; MDA-MB-435; OVCAR-4; UO-31; U-251; SNB-75; 786-0; SK-MEL-5; SN12C; DU-145; A549; HOP-92; COLO 205; HL-60; KM12; SF-295; PC-3; OVCAR-5; Malme-3M.
Holding throughout (test): NCI-60 cell line screen, 48 h

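The compound was tested at five concentrations on cells cultured in 96-well plates, with a 48-hour exposure period. GI50 is the concentration that inhibits growth by half.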 Activity calls are given as the source filed them. Rule as the data show it: active = GI50 up to about 1.1 µM and inactive = higher.

Take `COc1cc(/C=C/C(=O)N[C@@H]2C(=O)N3[C@@H]2SC(C)(C)[C@@H]3C(=O)O)cc(OC)c1OC`: the GI50 in the assay with CCRF-CEM, in the assay on MDA-MB-435, in the assay on OVCAR-4, in the assay on UO-31, in the assay on U-251 and in the assay with SNB-75 was > 100 µM (inactive) throughout. The GI50 in the assay with 786-0, in the assay with SK-MEL-5, in the assay on SN12C, with DU-145, in the assay on A549 and with HOP-92 was > 100 µM (inactive) throughout. Besides, the GI50 in the assay with COLO 205, in the assay on HL-60, in the assay on KM12, with SF-295, in the assay with PC-3 and in the assay with OVCAR-5 was > 100 µM (inactive) in each case.

For `NC(=O)c1cc(N(CCO)CCO)c([N+](=O)[O-])cc1[N+](=O)[O-]`, the GI50 with CCRF-CEM, in the assay with MDA-MB-435, in the assay with OVCAR-4, in the assay with UO-31, in the assay on U-251 and with 786-0 was > 100 µM (inactive) each time. The GI50 in the assay on SK-MEL-5, in the assay on SN12C, in the assay on DU-145, with A549, with HOP-92 and with COLO 205 was > 100 µM (inactive) in each case. The GI50 in the assay with HL-60, with KM12, in the assay with Malme-3M, in the assay with SF-295, with PC-3 and with OVCAR-5 was > 100 µM (inactive) each time.

On to `COc1cc(NS(C)(=O)=O)ccc1N1Cc2c[nH]c3ccc4nc(C)cc1c4c23`, for which the GI50 with CCRF-CEM was 52.1 µM (inactive); in the assay on MDA-MB-435, 17.5 µM (inactive); with OVCAR-4, 49.9 µM (inactive); with UO-31, > 100 µM (inactive); in the assay on U-251, 32.3 µM (inactive); with SNB-75 it was 19.7 µM (inactive). Besides, the GI50 with 786-0 is 20.7 µM (inactive); in the assay with SK-MEL-5 it was 97.7 µM (inactive); in the assay on DU-145, > 100 µM (inactive); with A549, 62.5 µM (inactive); with HOP-92 it was 24.9 µM (inactive); with COLO 205 it was > 100 µM (inactive). Also, the GI50 is 91.4 µM (inactive) with HL-60; > 100 µM (inactive) in the assay on KM12; 54.8 µM (inactive) in the assay with SF-295; > 100 µM (inactive) in the assay on PC-3; > 100 µM (inactive) in the assay on OVCAR-5.

As for `C[N+](C)(C)C1=NNC2=Nc3ccccc3SC2=C1`, the GI50 in the assay on CCRF-CEM was 11.7 µM (inactive); in the assay on MDA-MB-435, 22.2 µM (inactive); in the assay with OVCAR-4 it was 19.7 µM (inactive); with UO-31, 15 µM (inactive); in the assay on U-251, 18.6 µM (inactive); with 786-0 it was 20.1 µM (inactive). The GI50 is 15.1 µM (inactive) with SK-MEL-5; 21.9 µM (inactive) with SN12C; 27.6 µM (inactive) in the assay on DU-145; 23.9 µM (inactive) in the assay on A549; 12.1 µM (inactive) with HOP-92; 15 µM (inactive) in the assay on COLO 205. Besides, the GI50 in the assay with HL-60 was 54.1 µM (inactive); in the assay on KM12, 23.9 µM (inactive); in the assay on Malme-3M, 19.8 µM (inactive); in the assay on SF-295, 9.42 µM (inactive); in the assay with PC-3 it was 15.1 µM (inactive); in the assay with OVCAR-5, 17.7 µM (inactive).

Regarding `N#Cc1c(-c2ccccc2)cc(Nc2ccc(F)cc2)n2c1nc1ccccc12`, the GI50 is 3.11 µM (inactive) in the assay with MDA-MB-435; 4.62 µM (inactive) in the assay with OVCAR-4; 1.73 µM (inactive) in the assay on UO-31; 2.06 µM (inactive) in the assay on U-251; 1.72 µM (inactive) with SNB-75; 2.78 µM (inactive) with 786-0. For the same molecule, the GI50 was 1.24 µM (inactive) in the assay with SK-MEL-5; 2.02 µM (inactive) in the assay on SN12C; 2.94 µM (inactive) with DU-145; 2.28 µM (inactive) with A549; 1.01 µM (active) in the assay with HOP-92; 1.58 µM (inactive) in the assay with COLO 205. The GI50 was > 100 µM (inactive) in the assay with HL-60; 3.52 µM (inactive) with KM12; 3.66 µM (inactive) in the assay with Malme-3M; 2.22 µM (inactive) in the assay with SF-295; 1.83 µM (inactive) in the assay on PC-3; 3.16 µM (inactive) in the assay with OVCAR-5.

Take `Cc1csc2[n+]1C(=O)/C(=C\c1ccc([N+](=O)[O-])cc1)S2`: the GI50 in the assay on CCRF-CEM was 43.1 µM (inactive); with MDA-MB-435, 24.9 µM (inactive); in the assay on OVCAR-4, 42.3 µM (inactive); with UO-31 it was 15.3 µM (inactive); with U-251, 18.7 µM (inactive); in the assay with SNB-75, 20.3 µM (inactive). Further, the GI50 in the assay with 786-0 is 24.2 µM (inactive); in the assay on SK-MEL-5 it was 26.2 µM (inactive); in the assay with SN12C, 37.4 µM (inactive); in the assay on DU-145, 39 µM (inactive); in the assay on A549 it was 27.4 µM (inactive); in the assay on HOP-92, 19.4 µM (inactive). For the same molecule, the GI50 with COLO 205 was 19.7 µM (inactive); in the assay on HL-60, 26.2 µM (inactive); in the assay on KM12, 20.5 µM (inactive); with SF-295 it was 23.9 µM (inactive); with PC-3, 25.4 µM (inactive); with OVCAR-5 it was 47.2 µM (inactive).

For `O=C1/C(=C/c2ccccc2)N=C(c2ccccc2)N1C1Nc2cc3c(cc2S1)NC(N1C(=O)/C(=C/c2ccccc2)N=C1c1ccccc1)S3` (configuration not stated), the GI50 in the assay on CCRF-CEM is 31.7 µM (inactive); in the assay with MDA-MB-435, 13.6 µM (inactive); in the assay on OVCAR-4, 51.1 µM (inactive); in the assay with UO-31 it was 47.8 µM (inactive); with U-251, 4.72 µM (inactive); in the assay on 786-0, 53.6 µM (inactive). Further, the GI50 was 30.3 µM (inactive) in the assay on SK-MEL-5; 46.6 µM (inactive) with DU-145; 2.31 µM (inactive) in the assay on HOP-92; 3.63 µM (inactive) with HL-60; 6.87 µM (inactive) in the assay with KM12; > 100 µM (inactive) in the assay with SF-295. Also, the GI50 in the assay on PC-3 was 11.8 µM (inactive); in the assay with OVCAR-5 it was 64 µM (inactive).

As to `Nc1ccc(Oc2ccc(C34CC5C6CC7(c8ccc(Oc9ccc(N)cc9)cc8)CC5C(C3)C(C7)C6C4)cc2)cc1`, the GI50 with CCRF-CEM, in the assay on MDA-MB-435, in the assay on OVCAR-4, in the assay on UO-31, in the assay with U-251 and in the assay with 786-0 was > 100 µM (inactive) each time. Moreover, the GI50 in the assay with SK-MEL-5, with SN12C, in the assay with DU-145, in the assay with A549, in the assay on HOP-92 and with COLO 205 was > 100 µM (inactive) throughout. In addition, the GI50 in the assay with HL-60, in the assay on KM12, in the assay on Malme-3M, in the assay with SF-295, in the assay with PC-3 and in the assay on OVCAR-5 was > 100 µM (inactive) throughout.

`COC(C)(C)C1=CCC(C)CC1` (configuration not stated): the GI50 was > 100 µM (inactive) in the assay on MDA-MB-435; > 100 µM (inactive) with OVCAR-4; > 100 µM (inactive) in the assay on UO-31; > 100 µM (inactive) in the assay with U-251; 66.1 µM (inactive) in the assay with SNB-75; > 100 µM (inactive) with 786-0. The GI50 with SK-MEL-5, in the assay on SN12C, in the assay with DU-145, in the assay with A549, with HOP-92 and in the assay on COLO 205 was > 100 µM (inactive) throughout. Besides, the GI50 was > 10 µM (inactive) in the assay on HL-60; > 100 µM (inactive) in the assay on KM12; > 100 µM (inactive) in the assay with Malme-3M; > 100 µM (inactive) with SF-295; > 100 µM (inactive) in the assay on PC-3; > 100 µM (inactive) in the assay on OVCAR-5.

In the case of `C=C1C(=O)C=C[C@]2(C)CC[C@H]3C(=C)C(=O)O[C@@H]3[C@@H]12`, the GI50 is 0.579 µM (active) in the assay on CCRF-CEM; 1.57 µM (inactive) with MDA-MB-435; 2.21 µM (inactive) in the assay on OVCAR-4; 1.43 µM (inactive) in the assay on UO-31; 2.13 µM (inactive) in the assay on U-251; 0.461 µM (active) with 786-0. The GI50 in the assay with SK-MEL-5 is 2.34 µM (inactive); with SN12C it was 2.96 µM (inactive); in the assay on DU-145 it was 2.09 µM (inactive); with A549, 11.6 µM (inactive); in the assay on HOP-92, 2.87 µM (inactive); in the assay on COLO 205, 0.964 µM (active). Besides, the GI50 is 1.9 µM (inactive) in the assay with HL-60; 1.61 µM (inactive) in the assay with KM12; 1.97 µM (inactive) in the assay with Malme-3M; 15.1 µM (inactive) in the assay with SF-295; 2.84 µM (inactive) in the assay on PC-3; 1.33 µM (inactive) in the assay on OVCAR-5.

Regarding `Nc1nc(S)c2c(N)n[nH]c2c1C(=O)Nc1ccccc1`, the GI50 with MDA-MB-435 was 42 µM (inactive); in the assay on OVCAR-4, > 100 µM (inactive); in the assay on UO-31, > 100 µM (inactive); in the assay on U-251 it was > 100 µM (inactive); in the assay with SNB-75, > 100 µM (inactive); in the assay with 786-0 it was > 100 µM (inactive). Further, the GI50 in the assay with SK-MEL-5, with SN12C, in the assay with DU-145, in the assay on A549, in the assay with HOP-92 and in the assay on COLO 205 was > 100 µM (inactive) in each case. Further, the GI50 is > 100 µM (inactive) in the assay on HL-60; 65.5 µM (inactive) in the assay with KM12; > 100 µM (inactive) with Malme-3M; > 100 µM (inactive) in the assay with PC-3; > 100 µM (inactive) in the assay on OVCAR-5.
